Results published in ChEMBL document CHEMBL1201862, “PubChem BioAssay data set” (2004).
Activity calls are given as the source filed them.

How the values were obtained:
Type in all cases: functional
[1] = molecular target: T1, Serine/threonine-protein kinase TBK1 (Homo sapiens, UniProt Q9UHD2); assay: Navigating the Kinome. Panel member name: TBK1
T1 sequence (Q9UHD2 whole entry): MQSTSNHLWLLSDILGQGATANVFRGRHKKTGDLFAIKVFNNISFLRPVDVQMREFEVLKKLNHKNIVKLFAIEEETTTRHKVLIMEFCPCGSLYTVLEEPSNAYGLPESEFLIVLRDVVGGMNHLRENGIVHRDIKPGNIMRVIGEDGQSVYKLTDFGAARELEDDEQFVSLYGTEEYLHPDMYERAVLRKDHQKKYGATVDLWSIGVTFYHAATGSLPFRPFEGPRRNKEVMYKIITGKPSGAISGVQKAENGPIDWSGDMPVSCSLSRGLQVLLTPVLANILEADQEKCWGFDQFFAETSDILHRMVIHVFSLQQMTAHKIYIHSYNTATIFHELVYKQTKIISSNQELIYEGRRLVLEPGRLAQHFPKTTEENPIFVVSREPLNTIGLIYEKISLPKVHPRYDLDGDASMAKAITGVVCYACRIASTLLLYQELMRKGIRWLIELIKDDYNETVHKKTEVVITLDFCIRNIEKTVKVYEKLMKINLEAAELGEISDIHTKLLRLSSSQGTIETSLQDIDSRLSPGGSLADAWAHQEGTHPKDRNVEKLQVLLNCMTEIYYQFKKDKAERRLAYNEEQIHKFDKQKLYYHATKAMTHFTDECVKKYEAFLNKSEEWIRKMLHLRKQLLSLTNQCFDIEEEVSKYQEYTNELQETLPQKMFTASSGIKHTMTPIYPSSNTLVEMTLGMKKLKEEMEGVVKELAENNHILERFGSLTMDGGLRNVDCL

[2] = molecular target: Serine/threonine-protein kinase pim-1 (Homo sapiens, UniProt P11309)
[3] = molecular target: Vascular endothelial growth factor receptor 2 (Homo sapiens, UniProt P35968)
[4] = molecular target: Cyclin-dependent kinase 5 (Homo sapiens, UniProt Q00535);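 note: CDK5 measured as one member of a kinase profiling panel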
[5] = molecular target: Dual specificity tyrosine-phosphorylation-regulated kinase 1B (Homo sapiens, UniProt Q9Y463); assay: Navigating the Kinome. Panel member name: DYRK1B
[6] = molecular target: Leucine-rich repeat serine/threonine-protein kinase 2 (Homo sapiens, UniProt Q5S007);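 note: value from a broad kinome-wide panel profiling study in which LRRK2 was one of the kinases tested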
Aurora kinase B = Aurora kinase B (Homo sapiens, UniProt Q96GD4)
[7] = molecular target: Glycogen synthase kinase-3 beta (Homo sapiens, UniProt P49841);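 note: value comes from a broad kinome profiling panel, with GSK3B as the panel member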
[8] = molecular target: BDNF/NT-3 growth factors receptor (Homo sapiens, UniProt Q16620);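 note: NTRK2 measured as one member of a broad kinome-wide kinase profiling panel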
[9] = molecular target: Mitogen-activated protein kinase kinase kinase kinase 4 (Homo sapiens, UniProt O95819)
[10] = molecular target: Macrophage-stimulating protein receptor (Homo sapiens, UniProt Q04912); assay: Navigating the Kinome. Panel member name: MST1R
[11] = molecular target: Macrophage colony-stimulating factor 1 receptor (Homo sapiens, UniProt P07333);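 note: value comes from the Navigating the Kinome screening panel, CSF1R member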
[12] = molecular target: Dual specificity tyrosine-phosphorylation-regulated kinase 1A (Homo sapiens, UniProt Q13627);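 note: measured against DYRK1A as one member of a broad kinome profiling panel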
Caspase-3 = molecular target: T2, Caspase-3 (Homo sapiens, UniProt P42574);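 note: Dose-response selectivity test against caspase-3 for candidate inhibitors of sentrin-specific proteases (SENPs)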
T2 sequence (P42574 whole entry): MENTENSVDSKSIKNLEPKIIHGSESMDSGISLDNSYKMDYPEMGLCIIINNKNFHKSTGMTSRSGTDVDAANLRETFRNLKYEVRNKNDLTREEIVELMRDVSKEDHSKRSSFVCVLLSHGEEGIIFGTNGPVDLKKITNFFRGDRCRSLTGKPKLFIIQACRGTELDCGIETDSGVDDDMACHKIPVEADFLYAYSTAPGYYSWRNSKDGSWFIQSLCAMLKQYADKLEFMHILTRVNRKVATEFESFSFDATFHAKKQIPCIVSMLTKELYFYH

[13] = molecular target: T3, Sentrin-specific protease 8 (Homo sapiens, UniProt Q96LD8);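 note: luminescence read-out of SENP8 inhibition, dose-response confirmation following an ultra-high-throughput screen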
T3 sequence (Q96LD8 whole entry): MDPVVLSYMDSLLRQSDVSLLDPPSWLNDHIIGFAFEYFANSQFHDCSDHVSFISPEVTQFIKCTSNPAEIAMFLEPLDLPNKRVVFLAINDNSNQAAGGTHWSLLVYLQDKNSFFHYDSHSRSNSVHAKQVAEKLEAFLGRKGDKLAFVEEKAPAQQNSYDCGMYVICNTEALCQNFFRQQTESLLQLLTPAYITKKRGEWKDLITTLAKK

[14] = molecular target: T4, Rac GTPase-activating protein 1 (Homo sapiens, UniProt Q9H0H5); assay: blockers of MgcRacGAP-driven Rac1 GTP hydrolysis – biochemical, ADP Hunter fluorescence, primary and confirmatory, confirmation (AID 624330)
T4 sequence (Q9H0H5 whole entry): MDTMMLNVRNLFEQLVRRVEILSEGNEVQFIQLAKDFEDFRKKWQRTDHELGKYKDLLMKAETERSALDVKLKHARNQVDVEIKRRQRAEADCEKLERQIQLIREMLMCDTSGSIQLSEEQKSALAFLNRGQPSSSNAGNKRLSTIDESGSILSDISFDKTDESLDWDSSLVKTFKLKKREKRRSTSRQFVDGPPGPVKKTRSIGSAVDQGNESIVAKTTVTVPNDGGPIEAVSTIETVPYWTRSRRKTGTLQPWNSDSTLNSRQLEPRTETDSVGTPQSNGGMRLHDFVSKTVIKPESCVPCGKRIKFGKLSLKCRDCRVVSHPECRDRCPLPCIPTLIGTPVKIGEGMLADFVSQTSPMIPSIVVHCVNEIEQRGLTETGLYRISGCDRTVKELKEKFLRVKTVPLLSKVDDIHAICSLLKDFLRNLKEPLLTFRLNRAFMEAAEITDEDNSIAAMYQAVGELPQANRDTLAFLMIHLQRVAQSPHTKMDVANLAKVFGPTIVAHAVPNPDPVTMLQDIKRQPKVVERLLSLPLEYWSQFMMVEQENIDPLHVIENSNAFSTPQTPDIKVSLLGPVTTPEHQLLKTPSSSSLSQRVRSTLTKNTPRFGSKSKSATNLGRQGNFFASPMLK

Sequence of Serine/threonine-protein kinase pim-1 (P11309 whole entry): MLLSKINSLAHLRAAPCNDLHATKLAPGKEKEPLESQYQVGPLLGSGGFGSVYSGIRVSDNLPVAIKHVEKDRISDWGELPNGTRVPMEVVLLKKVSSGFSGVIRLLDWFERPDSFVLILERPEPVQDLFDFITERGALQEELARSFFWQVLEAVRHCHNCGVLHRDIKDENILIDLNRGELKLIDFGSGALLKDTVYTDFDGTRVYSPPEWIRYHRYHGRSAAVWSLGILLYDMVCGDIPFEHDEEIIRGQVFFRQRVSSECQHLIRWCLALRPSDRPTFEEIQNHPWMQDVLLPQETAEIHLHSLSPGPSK
Sequence of Macrophage colony-stimulating factor 1 receptor (P07333 whole entry): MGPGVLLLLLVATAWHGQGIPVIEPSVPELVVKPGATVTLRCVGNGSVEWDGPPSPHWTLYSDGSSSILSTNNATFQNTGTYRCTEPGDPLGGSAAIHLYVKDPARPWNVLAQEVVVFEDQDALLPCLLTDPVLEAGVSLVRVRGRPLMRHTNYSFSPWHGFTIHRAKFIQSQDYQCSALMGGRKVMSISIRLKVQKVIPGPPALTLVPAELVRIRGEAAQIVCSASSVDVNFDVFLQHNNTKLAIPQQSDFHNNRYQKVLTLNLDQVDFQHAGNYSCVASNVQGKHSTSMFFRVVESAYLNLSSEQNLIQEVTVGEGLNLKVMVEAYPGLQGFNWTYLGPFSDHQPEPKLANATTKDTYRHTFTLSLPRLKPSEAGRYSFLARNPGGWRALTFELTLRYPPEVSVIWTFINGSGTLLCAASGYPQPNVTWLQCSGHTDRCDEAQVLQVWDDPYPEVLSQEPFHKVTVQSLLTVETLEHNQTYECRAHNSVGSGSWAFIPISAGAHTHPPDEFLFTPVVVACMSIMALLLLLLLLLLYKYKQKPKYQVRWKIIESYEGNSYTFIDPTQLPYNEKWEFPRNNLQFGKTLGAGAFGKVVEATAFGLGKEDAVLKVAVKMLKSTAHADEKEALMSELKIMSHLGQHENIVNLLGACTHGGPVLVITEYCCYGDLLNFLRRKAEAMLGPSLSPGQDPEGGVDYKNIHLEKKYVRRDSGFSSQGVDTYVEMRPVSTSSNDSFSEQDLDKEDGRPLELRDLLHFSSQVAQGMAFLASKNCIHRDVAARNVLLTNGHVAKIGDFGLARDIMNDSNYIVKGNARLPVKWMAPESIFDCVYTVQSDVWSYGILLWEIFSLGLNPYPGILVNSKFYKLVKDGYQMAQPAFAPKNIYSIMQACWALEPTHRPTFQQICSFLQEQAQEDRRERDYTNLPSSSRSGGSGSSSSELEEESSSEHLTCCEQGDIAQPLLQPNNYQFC
Sequence of Leucine-rich repeat serine/threonine-protein kinase 2 (Q5S007 whole entry): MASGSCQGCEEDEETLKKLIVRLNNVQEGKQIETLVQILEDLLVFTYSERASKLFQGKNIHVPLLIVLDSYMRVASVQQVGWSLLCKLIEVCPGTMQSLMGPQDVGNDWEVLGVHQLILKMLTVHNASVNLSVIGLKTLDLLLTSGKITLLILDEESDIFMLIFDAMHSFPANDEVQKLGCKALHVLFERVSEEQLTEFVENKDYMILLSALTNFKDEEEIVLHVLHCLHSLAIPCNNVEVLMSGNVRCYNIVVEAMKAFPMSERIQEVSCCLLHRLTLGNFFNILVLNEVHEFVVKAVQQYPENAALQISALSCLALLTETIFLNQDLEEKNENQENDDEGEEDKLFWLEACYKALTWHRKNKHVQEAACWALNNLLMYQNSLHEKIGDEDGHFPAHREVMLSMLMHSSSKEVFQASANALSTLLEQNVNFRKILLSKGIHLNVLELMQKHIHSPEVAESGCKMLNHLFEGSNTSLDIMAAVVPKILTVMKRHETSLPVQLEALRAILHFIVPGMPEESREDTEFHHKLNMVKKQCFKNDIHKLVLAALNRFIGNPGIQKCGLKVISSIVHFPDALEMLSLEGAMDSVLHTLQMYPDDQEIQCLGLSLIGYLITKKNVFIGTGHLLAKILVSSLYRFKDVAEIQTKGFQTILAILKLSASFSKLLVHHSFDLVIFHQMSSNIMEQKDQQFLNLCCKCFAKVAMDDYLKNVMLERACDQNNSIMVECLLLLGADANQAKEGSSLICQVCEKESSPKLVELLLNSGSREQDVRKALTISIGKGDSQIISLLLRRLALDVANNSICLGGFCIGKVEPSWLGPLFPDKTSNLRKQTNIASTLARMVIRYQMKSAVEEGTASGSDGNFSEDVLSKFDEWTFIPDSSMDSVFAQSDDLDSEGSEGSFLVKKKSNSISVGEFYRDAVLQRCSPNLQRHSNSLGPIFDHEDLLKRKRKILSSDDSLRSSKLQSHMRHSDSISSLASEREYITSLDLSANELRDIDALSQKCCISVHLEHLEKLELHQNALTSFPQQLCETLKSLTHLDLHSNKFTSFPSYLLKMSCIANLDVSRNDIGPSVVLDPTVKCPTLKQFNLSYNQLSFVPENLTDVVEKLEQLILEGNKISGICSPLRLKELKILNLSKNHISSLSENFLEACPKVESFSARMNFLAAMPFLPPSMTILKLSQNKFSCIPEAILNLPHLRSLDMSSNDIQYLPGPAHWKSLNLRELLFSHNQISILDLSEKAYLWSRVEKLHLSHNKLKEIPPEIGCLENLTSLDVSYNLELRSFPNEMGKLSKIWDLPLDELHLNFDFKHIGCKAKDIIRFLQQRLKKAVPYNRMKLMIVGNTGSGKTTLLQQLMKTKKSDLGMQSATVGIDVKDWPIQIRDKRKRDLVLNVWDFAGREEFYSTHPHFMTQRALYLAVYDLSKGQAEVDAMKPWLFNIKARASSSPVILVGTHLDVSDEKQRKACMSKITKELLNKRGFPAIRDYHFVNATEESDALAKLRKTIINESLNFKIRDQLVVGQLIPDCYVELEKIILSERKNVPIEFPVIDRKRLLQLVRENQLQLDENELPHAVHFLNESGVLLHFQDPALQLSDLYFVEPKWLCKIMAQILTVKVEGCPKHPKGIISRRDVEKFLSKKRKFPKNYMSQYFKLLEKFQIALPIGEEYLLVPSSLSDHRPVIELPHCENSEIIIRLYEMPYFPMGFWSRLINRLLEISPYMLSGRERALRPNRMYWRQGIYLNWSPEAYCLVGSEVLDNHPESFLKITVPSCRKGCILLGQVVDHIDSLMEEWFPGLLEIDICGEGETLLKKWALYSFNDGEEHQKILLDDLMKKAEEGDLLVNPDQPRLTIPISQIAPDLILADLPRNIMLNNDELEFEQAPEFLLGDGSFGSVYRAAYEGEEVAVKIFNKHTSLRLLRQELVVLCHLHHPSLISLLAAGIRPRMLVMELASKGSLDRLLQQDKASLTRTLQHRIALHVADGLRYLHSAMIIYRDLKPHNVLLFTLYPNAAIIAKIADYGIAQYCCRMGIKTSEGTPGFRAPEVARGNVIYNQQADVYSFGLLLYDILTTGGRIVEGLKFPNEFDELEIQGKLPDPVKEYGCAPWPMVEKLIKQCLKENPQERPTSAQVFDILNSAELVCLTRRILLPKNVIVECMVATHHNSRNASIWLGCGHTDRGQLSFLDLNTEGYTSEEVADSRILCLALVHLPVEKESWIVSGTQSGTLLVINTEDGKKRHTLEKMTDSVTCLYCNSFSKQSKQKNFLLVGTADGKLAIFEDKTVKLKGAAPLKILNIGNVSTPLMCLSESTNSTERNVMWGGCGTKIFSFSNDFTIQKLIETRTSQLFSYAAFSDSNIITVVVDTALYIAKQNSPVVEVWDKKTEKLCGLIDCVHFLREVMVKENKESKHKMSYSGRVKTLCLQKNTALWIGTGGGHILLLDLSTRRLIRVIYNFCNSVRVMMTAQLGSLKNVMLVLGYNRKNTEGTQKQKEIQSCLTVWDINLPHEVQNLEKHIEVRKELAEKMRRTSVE
Sequence of BDNF/NT-3 growth factors receptor (Q16620 whole entry): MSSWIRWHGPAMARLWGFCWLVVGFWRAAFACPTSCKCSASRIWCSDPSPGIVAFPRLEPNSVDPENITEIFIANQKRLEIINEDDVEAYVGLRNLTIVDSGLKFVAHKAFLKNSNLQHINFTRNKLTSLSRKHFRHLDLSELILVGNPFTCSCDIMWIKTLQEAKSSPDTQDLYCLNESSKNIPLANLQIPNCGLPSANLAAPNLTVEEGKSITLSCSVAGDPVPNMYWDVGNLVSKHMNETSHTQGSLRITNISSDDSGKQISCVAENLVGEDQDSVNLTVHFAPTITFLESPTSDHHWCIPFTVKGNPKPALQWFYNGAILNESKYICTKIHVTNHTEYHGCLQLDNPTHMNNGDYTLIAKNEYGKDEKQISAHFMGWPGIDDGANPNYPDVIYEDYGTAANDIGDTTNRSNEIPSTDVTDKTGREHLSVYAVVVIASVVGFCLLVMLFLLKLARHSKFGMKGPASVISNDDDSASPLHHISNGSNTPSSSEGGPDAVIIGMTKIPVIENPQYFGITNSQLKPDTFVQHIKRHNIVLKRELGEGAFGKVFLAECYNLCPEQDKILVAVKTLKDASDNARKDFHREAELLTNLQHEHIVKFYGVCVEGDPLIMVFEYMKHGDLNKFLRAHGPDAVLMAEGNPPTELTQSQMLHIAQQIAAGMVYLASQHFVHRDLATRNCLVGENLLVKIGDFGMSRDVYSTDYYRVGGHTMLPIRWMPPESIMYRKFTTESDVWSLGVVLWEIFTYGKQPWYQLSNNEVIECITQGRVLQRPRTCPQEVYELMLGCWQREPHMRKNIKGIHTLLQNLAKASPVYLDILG
Sequence of Glycogen synthase kinase-3 beta (P49841 whole entry): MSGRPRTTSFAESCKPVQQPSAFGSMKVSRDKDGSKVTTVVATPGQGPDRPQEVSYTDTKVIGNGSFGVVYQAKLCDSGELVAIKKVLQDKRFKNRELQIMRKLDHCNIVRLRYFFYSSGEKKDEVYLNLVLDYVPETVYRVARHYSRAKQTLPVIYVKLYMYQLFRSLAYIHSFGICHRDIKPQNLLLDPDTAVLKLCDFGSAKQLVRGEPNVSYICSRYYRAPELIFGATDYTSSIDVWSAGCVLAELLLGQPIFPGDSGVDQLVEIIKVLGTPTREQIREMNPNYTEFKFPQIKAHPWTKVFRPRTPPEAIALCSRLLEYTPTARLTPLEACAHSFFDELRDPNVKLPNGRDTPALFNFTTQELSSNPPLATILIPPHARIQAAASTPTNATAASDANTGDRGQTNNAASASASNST

Ki [1]	Ki [2]	Ki [3]	Ki [4]	Ki [5]	Ki [6]	Ki (Aurora kinase B)	Ki [7]	Ki [8]	Ki [9]	Ki [10]	Ki [11]	Ki [12]	SMILES	IC50 (Caspase-3)	IC50 [13]	IC50 [14]
0.00794 µM (active)	0.631 µM (active)	0.000631 µM (active)	0.000631 µM (active)	0.001 µM (active)	0.00631 µM (active)	0.0398 µM (active)	0.00251 µM (active)	0.00501 µM (active)	0.00501 µM (active)	0.00158 µM (active)	0.631 µM (active)	0.000398 µM (active)	NC(COc1cncc(-c2ccc3c(c2)C(=Cc2ccc[nH]2)C(=O)N3)c1)Cc1ccccc1 (stereo not drawn)	–	–	–
–	–	–	–	–	–	–	–	–	–	–	–	–	Oc1nc(Nc2ccc(F)cc2)cc2ccccc12	4.77 µM (active)	6.03 µM (active)	–
–	–	–	–	–	–	–	–	–	–	–	–	–	COc1cc2cc(NC(C)=O)cc(NCc3ccccc3)c2cc1OC	–	–	49.6 µM (active)
79.4 µM (active)	50.1 µM (active)	31.6 µM (active)	25.1 µM (active)	50.1 µM (active)	20 µM (active)	31.6 µM (active)	15.8 µM (active)	100 µM (active)	79.4 µM (active)	79.4 µM (active)	63.1 µM (active)	39.8 µM (active)	O=C1Cc2cc(-c3ccccc3)cnc2N1	–	–	–
1.26 µM (active)	0.251 µM (active)	0.0126 µM (active)	> 3.16 µM (inactive)	0.398 µM (active)	0.00794 µM (active)	0.02 µM (active)	0.501 µM (active)	0.631 µM (active)	0.02 µM (active)	0.0631 µM (active)	1.26 µM (active)	> 2 µM (inactive)	O=C1Nc2cc(-c3ccc(O)cc3)ccc2C1=Cc1ccc[nH]1	–	–	–
–	–	–	–	–	–	–	–	–	–	–	–	–	CN(C)c1cc(N/N=C\c2ccccc2)nc(N(C)C)n1	> 100 µM (inactive)	18.8 µM (active)	–
–	–	–	–	–	–	–	–	–	–	–	–	–	CCN(CC)CCOc1ccc2c(c1)C(=NNC(=O)c1ccccn1)c1cc(OCCN(CC)CC)ccc1-2	–	–	31.3 µM (active)
–	–	–	–	–	–	–	–	–	–	–	–	–	O=C(O)c1ccc2c(c1)[C@@H]1C=CC[C@@H]1[C@H](c1ccccn1)N2	–	–	360 µM (active)
–	–	–	–	–	–	–	–	–	–	–	–	–	O=C(NC1=C(Nc2ccc(F)cc2)C(=O)c2ccccc2C1=O)c1ccc(Cl)cc1	19 µM (active)	10.2 µM (active)	–
